Test results reported in ChEMBL document CHEMBL1130923, “Synthesis and biological activity of 2-methyl-20-epi analogues of 1 alpha,25-dihydroxyvitamin D3” (1998).

Tests used:
[1] = molecular target: T1, Vitamin D3 receptor (Bos taurus) (UniProt Q28037); assay: Affinity for bovine thymus VDR vitamin D receptor
T1 sequence (whole entry): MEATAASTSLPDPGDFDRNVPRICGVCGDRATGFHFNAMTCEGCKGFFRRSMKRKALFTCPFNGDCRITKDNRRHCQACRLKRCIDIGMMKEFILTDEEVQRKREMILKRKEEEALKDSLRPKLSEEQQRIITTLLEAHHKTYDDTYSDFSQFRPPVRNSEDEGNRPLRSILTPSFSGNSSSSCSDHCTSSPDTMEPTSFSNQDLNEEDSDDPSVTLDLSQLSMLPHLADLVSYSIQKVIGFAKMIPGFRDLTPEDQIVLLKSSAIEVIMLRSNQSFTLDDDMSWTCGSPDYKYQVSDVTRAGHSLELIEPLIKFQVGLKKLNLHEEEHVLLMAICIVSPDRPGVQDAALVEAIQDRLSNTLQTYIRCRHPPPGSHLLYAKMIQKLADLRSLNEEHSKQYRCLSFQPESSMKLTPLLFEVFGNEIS

HL-60 = assay: Cell differentiation activity towards HL-60 cells was assessed in terms of NTB reactivity; type: functional, Homo sapiens
Rattus norvegicus = species: Rattus norvegicus; assay: Bone calcium mobilization was tested on normal SD male rats and serum calcium level was reported; type: functional; parameters: unit not given beside the values

Row | Activity [1] | SMILES | Activity (HL-60) | Activity (Rattus norvegicus)
1 | 1200 | C=C1/C(=C\C=C2/CCC[C@]3(C)[C@@H]([C@H](C)CCCC(C)(C)O)CC[C@@H]23)C[C@@H](O)[C@H](C)[C@@H]1O | 59000 | 655
2 | < 0.1 | C=C1/C(=C\C=C2/CCC[C@]3(C)[C@@H]([C@H](C)CCCC(C)(C)O)CC[C@@H]23)C[C@H](O)[C@H](C)[C@H]1O | 1 | 
3 | 7 | C=C1/C(=C\C=C2/CCC[C@]3(C)[C@@H]([C@H](C)CCCC(C)(C)O)CC[C@@H]23)C[C@H](O)[C@@H](C)[C@H]1O | 190 | 19
4 | 17 | C=C1/C(=C\C=C2/CCC[C@]3(C)[C@@H]([C@H](C)CCCC(C)(C)O)CC[C@@H]23)C[C@H](O)[C@H](C)[C@@H]1O | 730 | 144

Second part, the compound before the results:

Row | SMILES | Activity [1] | Activity (HL-60) | Activity (Rattus norvegicus)
5 | C=C1/C(=C\C=C2/CCC[C@]3(C)[C@@H]([C@H](C)CCCC(C)(C)O)CC[C@@H]23)C[C@@H](O)[C@@H](C)[C@H]1O | < 0.1 | 1 | 
6 | C=C1/C(=C\C=C2/CCC[C@]3(C)[C@@H]([C@H](C)CCCC(C)(C)O)CC[C@@H]23)C[C@@H](O)[C@H](C)[C@H]1O | < 0.1 | 3 | 
7 | C=C1/C(=C\C=C2/CCC[C@]3(C)[C@@H]([C@H](C)CCCC(C)(C)O)CC[C@@H]23)C[C@@H](O)[C@@H](C)[C@@H]1O | 160 | 2600 | 115
8 | C=C1/C(=C\C=C2/CCC[C@]3(C)[C@@H]([C@H](C)CCCC(C)(C)O)CC[C@@H]23)C[C@@H](O)C[C@@H]1O [CALCITRIOL] | 100 | 100 | 100
9 | C=C1/C(=C\C=C2/CCC[C@]3(C)[C@@H]([C@H](C)CCCC(C)(C)O)CC[C@@H]23)C[C@H](O)[C@@H](C)[C@@H]1O | < 0.1 | 6 | 
